The record followed here is patent publication US8354539B2, “Indole derivatives as IKK2 inhibitors” (Glaxo Group Limited, priority 2009, dated 2013).

For one test, the system named is human whole blood. Put plainly: Human whole blood assay (LPS stimulated TNFα). Type of test: cell-based. The settings on record: read-out: pIC50 potency, inhibition of TNF production (converted). On the procedure: Heparinised blood drawn from normal volunteers was dispensed (100 μl) into microtitre plate wells containing 1.0 μl of an appropriately diluted compound solution in DMSO. After 1 hr incubation at 37° C., 5% CO2, 25 μl LPS solution (S. typhosa) in RPMI 1640 (containing 1% L-glutamine and 1% Penicillin/streptomycin) was added (50 ng/ml final). The samples were incubated at 37° C., 5% CO2 for 20 hours, 50 μls physiological saline (0.138% NaCl) was added and diluted plasma was collected using a Biomek FX liquid handling robot after centrifugation at 1300 g for 10 min. Plasma TNFα content was determined by electrochemiluminescence assay using the Mesoscale (MSD) technology.
20 μl supernatant from PBMC plates or 40 μl from whole blood plates was transferred using the Biomek FX to a 96 well High-Bind MSD assay plate precoated with anti-hTNF alpha capture antibody and containing 25 μl of MSD human serum cytokine assay diluent. […] The plates were shaken at room temperature for a further 1 hour before washing again and adding 150 μl of MSD Read Buffer T (2×). Plates were then read on the MSD Sector 6000 plate reader. For the PBMC assay, supernatant addition to the MSD plates was followed immediately by 20 μl of MSD detection antibody, the plates were then sealed and shaken for 2 hours before addition of 90 μl of MSD Read Buffer P (2.5×). Plates were read on the MSD Sector 6000. […]

In a further test the test system is A549 SPAP cells. The test can be described thus: NFkB reporter assay. In kind it is cell-based. The settings on record: Homo sapiens, TNF stimulated, read-out: pIC50 potency (converted). Here is the method: A 70% confluent T225 flask of A549 SPAP cells was harvested by centrifugation for 5 min at 200 g, resuspended in assay buffer (DMEM supplemented with 10% FCS 2×HI, 2 mM L-Glutamine, 1% Pen/Strep and Non essential amino acids) and diluted to 0.16×10^6/ml. 60 μl of cell solution was dispensed to each well of clear Nunc 384-well plates, containing 0.5 μl compound in neat DMSO at 140× the required final assay concentration. Plates were incubated for 1h at 37° C., 95% humidity, 5% CO2 before […] of TNF solution in assay buffer was added to give a final concentration of 3.2 ng/ml and then returned to the cell incubator for 15 h. Plates were equilibrated to room temperature for 1 h prior to the addition of 25 μl of pNPP buffer (1 M Diethanolamine pH 9.8, 0.5 mM MgCl2, 0.28M NaCl, 2 mg/ml pNPP) to each well of assay plates. The plates were covered to protect the reagents from light, and then incubated at room temperature for approximately 1 hour before reading them on an Ascent using a 405 nm single filter.
All data was normalized to the mean of 16 high and 16 low control wells on each plate. A four parameter curve fit of the following form was then applied

The target of another test is T1, Recombinant human IKK1 (Homo sapiens, UniProt O15111).
T1 construct: Recombinant human IKK1 (residues 1-785); 6HIS (C); made in house
T1 sequence (O15111 1-745): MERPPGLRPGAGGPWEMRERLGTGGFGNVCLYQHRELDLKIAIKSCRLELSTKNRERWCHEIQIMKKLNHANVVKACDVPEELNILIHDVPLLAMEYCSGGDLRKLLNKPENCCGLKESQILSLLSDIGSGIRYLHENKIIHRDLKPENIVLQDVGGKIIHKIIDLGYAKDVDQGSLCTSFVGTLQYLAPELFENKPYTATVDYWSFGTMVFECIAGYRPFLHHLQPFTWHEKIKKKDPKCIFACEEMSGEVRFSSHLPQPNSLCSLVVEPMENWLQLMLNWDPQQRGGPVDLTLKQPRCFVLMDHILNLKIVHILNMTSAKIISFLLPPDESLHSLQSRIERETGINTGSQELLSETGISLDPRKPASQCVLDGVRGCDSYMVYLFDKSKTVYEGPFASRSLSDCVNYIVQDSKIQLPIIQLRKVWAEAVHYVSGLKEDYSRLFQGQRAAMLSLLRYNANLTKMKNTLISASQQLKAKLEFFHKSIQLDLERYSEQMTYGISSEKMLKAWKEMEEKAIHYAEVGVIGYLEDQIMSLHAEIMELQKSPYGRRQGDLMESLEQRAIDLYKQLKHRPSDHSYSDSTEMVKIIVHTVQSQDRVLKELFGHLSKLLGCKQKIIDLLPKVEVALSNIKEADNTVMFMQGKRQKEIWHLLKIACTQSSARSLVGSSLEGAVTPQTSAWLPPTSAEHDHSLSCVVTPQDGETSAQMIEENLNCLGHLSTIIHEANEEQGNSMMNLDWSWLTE
Put plainly: IKK1 time-resolved fluorescence resonance energy transfer assay. In kind it is biochemical. As to conditions: IKK2 assay and IKK2 time dependent assay versus IKK1 TR-FRET assay. Here is the method: Recombinant human IKK1 (residues 1-785) was expressed in baculovirus as a C-terminal 6HIS-tagged fusion protein, and its activity was assessed using a time-resolved fluorescence resonance energy transfer (TR-FRET) assay. Briefly, IKK1 (typically 5-10 nM final) diluted in assay buffer (50 mM HEPES, 10 mM MgCl2, 1 mM CHAPS pH 7.4 with 1 mM DTT and 0.01% w/v BSA) was added to wells containing various concentrations of compound or DMSO vehicle (1.7% v/v final). The reaction was initiated by the addition of GST-IκBα substrate (25 nM final)/ATP (1 μM final), in a total volume of 6 μl. The reaction was incubated for 15 minutes at room temperature, then terminated by the addition of stop reagent (3 μl) containing 50 mM EDTA and detection reagents in buffer (100 mM HEPES pH 7.4, 150 mM NaCl and 0.01% w/v BSA). […] The degree of phosphorylation of GST-IκBα was measured using a suitable time-resolved fluorimeter such as Packard Discovery (Perkin-Elmer Life Sciences, Pangbourne, Berkshire, UK), Wallac Viewlux (Perkin-Elmer Life Sciences, Pangbourne, Berkshire, UK), Envision (Perkin-Elmer Life Sciences, Pangbourne, Berkshire, UK), or Rubystar (BMG, Aylesbury, Buckinghamshire, UK) as a ratio of specific 665 nm energy transfer signal to reference europium 620 nm signal.

With `COCCS(=O)(=O)N1CCC(c2c[nH]c3c(C(N)=O)cc(-c4ccc5c(c4)CN(C(C)C)C5)cc23)CC1` [Compound of formula (I), 5-[2-(1-methylethyl)-2,3-dihydro-1H-isoindol-5-yl]-3-(1-{[2-(methyloxy)ethyl]sulfonyl}-4-piperidinyl)-1H-indole-7-carboxamide], the IC50 in the test on human whole blood was less than 316 nM; with A549 SPAP cells, less than 31.6 nM. In addition, the “potency at IKK2 relative to IKK1” value on Recombinant human IKK1 is on record as “inhibited IKK2 with greater potency than IKK1”.
